Measurements published in US20070078207A1, “Stabilizer cyanoacrylate formulations” (priority 2005, published 2007).

System: L5178Y TK^±
Test: Mouse lymphoma screening study, mutation assay without activation (protocol 431ICH1 edition 3)
Format: cell-based
Protocol: In order to determine mutagenic activity for cyanoacrylate compositions containing hydroquinone, a mouse lymphoma screening study was conducted according to methods known in the art. The assay protocol used was 431ICH1 edition 3 (L5178Y TK^±) and was conducted by Covance, Inc. The amount of radical stabilizer in each of the cyanoacrylate compositions was varied. The selective agent was 3.0 μg/ml 5-trifluorothymidine (TFT).

Oc1ccc(O)cc1 [HQ in saline, hydroquinone]
mutagenic activity (result in words, mutagenic activity defined as 124.1×10E-6 units): does not exhibit mutagenicity
Cumulative RSG (without activation, Relative to Vehicle Control (%)): 2.0%
Daily Cell Counts Day 2 (without activation, footnote g = not subcultured): 0.9^g Cell/ML, 10E5 units
Daily Cell Counts Day 1 (without activation, selective agent 3.0 μg/ml TFT): 0.5 Cell/ML, 10E5 units
